Results reported in US7495027B2, “3-aryl-4-hydroxyfuranone compounds and the human and animal health use thereof” (Wyeth, priority 2003, dated 2009).
In brackets after ≈: the same amount, converted by molar mass. Where two headings read alike, the source gives them in different places.

What was measured:
[1] = test system: enterococci; test: Minimum inhibitory concentration, microdilution broth method, enterococci; assay type: cell-based; details: Mueller-Hinton broth, 18-22 hours at 35° C.; for MIC: Enterococcus faecalis
Method in brief: (§1)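 Broth microdilution per NCCLS M7-A5 (2000). Staphylococci and enterococci grown in Mueller-Hinton broth; streptococci in Mueller-Hinton broth with 5% horse blood (LHB). Panel includes recent clinical isolates resistant to methicillin, penicillin and/or vancomycin.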

[2] = test system: Streptococci; test: Minimum inhibitory concentration, microdilution broth method, streptococci; assay type: cell-based; details: Mueller-Hinton broth with 5% horse blood, 18-22 hours at 35° C.; for MIC: S. pneumo GC 1894
Method in brief: as §1

[3] = biological target: T1, S. aureus Enopyruvyl-UPD-N-acetylglucosamine reductase, Mur B (Staphylococcus aureus, UniProt P61431); test: biochemical; details: (S) S. aureus enzyme; for IC50: read-out: MurB IC50 (converted)
T1 sequence (P61431 1-307): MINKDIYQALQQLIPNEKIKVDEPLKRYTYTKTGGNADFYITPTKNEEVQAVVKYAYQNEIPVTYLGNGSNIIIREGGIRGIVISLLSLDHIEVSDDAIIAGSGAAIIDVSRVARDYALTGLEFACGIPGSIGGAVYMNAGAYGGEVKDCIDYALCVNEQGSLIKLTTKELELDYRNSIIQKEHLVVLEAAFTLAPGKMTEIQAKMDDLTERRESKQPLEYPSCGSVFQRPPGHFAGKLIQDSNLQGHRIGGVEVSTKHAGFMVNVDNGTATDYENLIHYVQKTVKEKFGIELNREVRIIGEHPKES

[4] = biological target: E. coli Uridine-diphosphate-N-acetylmuramoyl-L-alanine: D-glutamate liease, MurD (Escherichia coli, UniProt P14900); test: biochemical; details: (E) E. coli enzyme
Method in brief: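 Compound working solutions reach 100 μg/mL in 50 mM Tris/HCl (pH 8.5) after dilution of 10 mg/mL DMSO stocks; final level in the well not given here. Reaction buffer finals: 2 mM ATP, 50 mM MgCl2, 83 mM Tris/HCl, pH 8.0.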

[5] = biological target: E. coli Uridine-diphosphate-N-acetvimuramoyl: L-alanine lipase, MurC (Escherichia coli, UniProt P17952); test: Inhibitory activity against MurC (E. coli); assay type: biochemical
[6] = E. faecalis GC 2242, read-out: MIC E. faecalis GC 2242
[7] = E. faecalis GC 4555, read-out: MIC E. faecalis GC 4555
[8] = (E) E. coli enzyme, read-out: MurC IC50 (converted)

Chain of E. coli Uridine-diphosphate-N-acetvimuramoyl: L-alanine lipase, MurC (P17952 whole entry): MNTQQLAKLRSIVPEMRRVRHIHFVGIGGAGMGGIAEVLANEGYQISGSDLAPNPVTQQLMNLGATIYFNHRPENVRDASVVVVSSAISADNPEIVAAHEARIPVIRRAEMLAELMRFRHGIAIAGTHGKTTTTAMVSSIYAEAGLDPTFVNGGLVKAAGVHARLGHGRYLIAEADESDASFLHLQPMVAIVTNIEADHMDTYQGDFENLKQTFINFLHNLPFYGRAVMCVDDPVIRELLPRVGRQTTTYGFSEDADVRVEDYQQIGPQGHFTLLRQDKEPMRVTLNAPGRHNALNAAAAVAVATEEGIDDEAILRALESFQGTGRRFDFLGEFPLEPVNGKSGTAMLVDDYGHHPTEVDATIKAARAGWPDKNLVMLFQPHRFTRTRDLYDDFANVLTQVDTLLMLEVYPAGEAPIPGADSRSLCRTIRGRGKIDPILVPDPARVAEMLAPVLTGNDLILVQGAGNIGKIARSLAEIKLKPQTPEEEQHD
Chain of E. coli Uridine-diphosphate-N-acetylmuramoyl-L-alanine: D-glutamate liease, MurD (P14900 whole entry): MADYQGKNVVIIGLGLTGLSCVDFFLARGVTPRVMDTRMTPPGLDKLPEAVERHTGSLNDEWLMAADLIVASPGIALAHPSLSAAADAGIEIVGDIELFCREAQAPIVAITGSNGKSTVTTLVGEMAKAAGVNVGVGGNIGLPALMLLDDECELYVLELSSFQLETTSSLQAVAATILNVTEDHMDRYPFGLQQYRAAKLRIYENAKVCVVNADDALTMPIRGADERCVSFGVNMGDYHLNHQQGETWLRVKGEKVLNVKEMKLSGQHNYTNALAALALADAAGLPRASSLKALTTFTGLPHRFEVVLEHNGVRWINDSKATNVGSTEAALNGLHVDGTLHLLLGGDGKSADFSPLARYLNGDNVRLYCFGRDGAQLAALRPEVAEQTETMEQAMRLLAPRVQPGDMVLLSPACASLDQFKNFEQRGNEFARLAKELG

## Cc1cc(/C=C2\OC(=O)C(c3cc(Cl)cc(Cl)c3)=C2O)ccc1-c1ccccc1OS(C)(=O)=O [Example 39]
[1]; E. faecalis GC 2242
  MIC E. faecalis GC 2242: 4 µg/mL (≈ 7.73 µM)
[1]; E. faecalis GC 4555
  MIC E. faecalis GC 4555: 8 µg/mL (≈ 15.5 µM)
[2]
  MIC S. pneumo GC 1894: 1 µg/mL (≈ 1.93 µM)
[3]
  MurB IC50: 4 µg/mL

## O=C1O/C(=C\c2ccc(C(F)(F)F)cc2)C(O)=C1c1ccc(-c2ccccc2)cc1 [R=H, R1=4-(biphenyl), R2=4-CF3—C6H4]
[4]
  IC50: 29.4 µM
[1]; [6]
  MIC: 2 µg/mL (≈ 4.9 µM)
[1]; [7]
  MIC: 8 µg/mL (≈ 19.6 µM)
[5]; MurC IC50, (E) E. coli enzyme
  IC50: 12.2 µM
[2]
  MIC: < 0.125 µg/mL

## O=C1O/C(=C\c2ccc(-c3ccc(Cl)cc3)cc2)C(O)=C1c1ccc(Cl)cc1 [R=H, R1=4-Cl—C6H4, R2=4-(4′-Cl-biphenyl)]
[4]
  IC50: 14.7 µM
[1]; [6]
  MIC: 2 µg/mL (≈ 4.89 µM)
[1]; [7]
  MIC: 8 µg/mL (≈ 19.5 µM)
[5]; MurC IC50, (E) E. coli enzyme
  IC50: 29.3 µM
[2]
  MIC: < 0.125 µg/mL

## Cc1cc(/C=C2\OC(=O)C(c3cccc(Cl)c3)=C2O)ccc1-c1ccccc1Cl [Example 30]
[1]; [6]
  MIC: 4 µg/mL (≈ 9.45 µM)
[1]; [7]
  MIC: 4 µg/mL (≈ 9.45 µM)
[2]
  MIC: 0.25 µg/mL (≈ 0.591 µM)
[3]
  IC50: 4.72 µM

## O=C1O/C(=C\c2ccc(N3CCOCC3)c(F)c2)C(O)=C1c1cc(Cl)cc(Cl)c1 [Example 34]
[1]; E. faecalis GC 2242
  MIC E. faecalis GC 2242: 64 µg/mL (≈ 147 µM)
[1]; E. faecalis GC 4555
  MIC E. faecalis GC 4555: 64 µg/mL (≈ 147 µM)
[2]
  MIC S. pneumo GC 1894: 4 µg/mL (≈ 9.17 µM)
[3]
  MurB IC50: 6 (S) μg/mL

## COc1ccc(C=C2OC(=O)C(c3cccc(Cl)c3)=C2O)c2ccccc12 [Example 35]
[1]; E. faecalis GC 2242
  MIC E. faecalis GC 2242: 8 µg/mL (≈ 21.1 µM)
[1]; E. faecalis GC 4555
  MIC E. faecalis GC 4555: 16 µg/mL (≈ 42.2 µM)
[2]
  MIC S. pneumo GC 1894: 2 µg/mL (≈ 5.28 µM)
[3]
  MurB IC50: 6 (S) μg/mL

## Cc1ccccc1-c1ccc(/C=C2\OC(=O)C(c3cccc(Cl)c3)=C2O)cc1C [Example 28]
[1]; [6]
  MIC: 2 µg/mL (≈ 4.96 µM)
[1]; [7]
  MIC: 4 µg/mL (≈ 9.93 µM)
[2]
  MIC: < 0.125 µg/mL
[3]
  IC50: 7.45 µM

## O=C1O/C(=C\c2ccc3ccccc3c2)C(O)=C1c1cccc2ccccc12 [Example 56]
[4]
  IC50: > 68.6 µM
[1]; [6]
  MIC: 8 µg/mL (≈ 22 µM)
[1]; [7]
  MIC: 32 µg/mL (≈ 87.8 µM)
[5]; [8]
  IC50: 13.7 µM
[2]
  MIC: 4 µg/mL (≈ 11 µM)

## O=C1O/C(=C\c2cccc(C(F)(F)F)c2)C(O)=C1c1ccc(-c2ccccc2)c(F)c1 [Example 106]
[1]; [6]
  MIC: 0.25 µg/mL (≈ 0.586 µM)
[1]; [7]
  MIC: 1 µg/mL (≈ 2.35 µM)
[5]; [8]
  IC50: 21.1 µM
[2]
  MIC: 0.25 µg/mL (≈ 0.586 µM)

## COc1cc(/C=C2\OC(=O)C(c3cccc(Cl)c3)=C2O)ccc1-c1ccccc1Cl [Example 18]
[1]; [6]
  MIC: 8 µg/mL (≈ 18.2 µM)
[1]; [7]
  MIC: 16 µg/mL (≈ 36.4 µM)
[2]
  MIC: 0.5 µg/mL (≈ 1.14 µM)
[3]
  IC50: 11.4 µM

## COc1ccc(/C=C2\OC(=O)C(c3cc(Cl)cc(Cl)c3)=C2O)c2ccccc12 [Example 36]
[1]; [6]
  MIC: 4 µg/mL (≈ 9.68 µM)
[1]; [7]
  MIC: 8 µg/mL (≈ 19.4 µM)
[2]
  MIC: 1 µg/mL (≈ 2.42 µM)
[3]
  IC50: 7.26 µM

## COc1ccccc1-c1ccc(/C=C2\OC(=O)C(c3cc(Cl)cc(Cl)c3)=C2O)cc1C [Example 24]
[1]; [6]
  MIC: 4 µg/mL (≈ 8.82 µM)
[1]; [7]
  MIC: 4 µg/mL (≈ 8.82 µM)
[2]
  MIC: 0.5 µg/mL (≈ 1.1 µM)
[3]
  IC50: 4.41 µM

## O=C1O/C(=C\c2cccnc2)C(O)=C1c1ccc(-c2ccccc2)cc1 [Example 101]
[4]
  IC50: > 73.2 µM
[1]; [6]
  MIC: 64 µg/mL (≈ 187 µM)
[1]; [7]
  MIC: > 128 µg/mL
[5]; [8]
  IC50: 52.7 µM
[2]
  MIC: 64 µg/mL (≈ 187 µM)

## Cc1ccc(/C=C2\OC(=O)C(c3ccc(-c4ccccc4)cc3)=C2O)s1 [Example 104]
[4]
  IC50: > 69.4 µM
[1]; [6]
  MIC: 32 µg/mL (≈ 88.8 µM)
[1]; [7]
  MIC: 64 µg/mL (≈ 178 µM)
[5]; [8]
  IC50: 13.9 µM
[2]
  MIC: 0.5 µg/mL (≈ 1.39 µM)

## O=C1O/C(=C\c2cccc(C(F)(F)F)c2)C(O)=C1c1ccc2ccccc2c1 [Example 42]
[1]; [6]
  MIC: 8 µg/mL (≈ 20.9 µM)
[1]; [7]
  MIC: 32 µg/mL (≈ 83.7 µM)
[5]; (E) E. coli enzyme
  MurC IC50: 6 µg/mL
[2]
  MIC: 8 µg/mL (≈ 20.9 µM)

## COc1cc(/C=C2\OC(=O)C(c3cc(Cl)cc(Cl)c3)=C2O)ccc1-c1ccccc1C(F)(F)F [Example 33]
[1]; [6]
  MIC: 1 µg/mL (≈ 1.97 µM)
[1]; [7]
  MIC: 2 µg/mL (≈ 3.94 µM)
[2]
  MIC: 0.5 µg/mL (≈ 0.986 µM)
[3]
  IC50: 3.94 µM

## O=C1OC(=Cc2ccc(-c3ccccc3)cc2)C(O)=C1c1cccc(C(F)(F)F)c1 (mixture of isomers) [Example 11]
[4]
  MurD IC50: 21 µg/mL
[1]; E. faecalis GC 2242
  MIC E. faecalis GC 2242: 1 µg/mL
[1]; E. faecalis GC 4555
  MIC E. faecalis GC 4555: 8 µg/mL
[5]; (E) E. coli enzyme
  MurC IC50: 4 µg/mL
[2]
  MIC S. pneumo GC 1894: <0.125 µg/mL

## O=C1O/C(=C\C2CCCCC2)C(O)=C1c1cccc(C(F)(F)F)c1 [Example 17]
[1]; [6]
  MIC: 32 µg/mL (≈ 94.6 µM)
[1]; [7]
  MIC: 64 µg/mL (≈ 189 µM)
[5]; (E) E. coli enzyme
  MurC IC50: 10 µg/mL
[2]
  MIC: < 0.125 µg/mL

## O=C1O/C(=C\c2ccccc2-c2ccc(Cl)c(Cl)c2)C(O)=C1c1ccc(Cl)c(Cl)c1 [Example 141]
[1]; [6]
  MIC: 0.5 µg/mL (≈ 1.05 µM)
[1]; [7]
  MIC: 1 µg/mL (≈ 2.09 µM)
[2]
  MIC: < 0.125 µg/mL
[3]
  IC50: 4.18 µM
